# pIC50: −log10 of the molar value. Read-outs that look alike come from different tables or passages of the source.
# Target: T1, HCV NS3 helicase (Hepatitis C virus genotype 1b, UniProt P26663)
# T1 construct: full-length NS3 (1-631), purified at Array BioPharma
# Assay: HCV Helicase Prompt FRET Assay (Example A)
# Assay type: biochemical
# Settings: read-out: IC50 Activity
# How it was run: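 Full-length NS3 (1-631), 5 or 6 nM, preincubated 5 min with compound, then unwinds 50 nM FAM/BHQ-1 duplex substrate with 250 nM capture strand and 300 μM ATP in 25 mM MOPS pH 7.0, 1.5 mM MgCl2, 0.005% Triton X-100, 2% DMSO. Fluorescence (485/535 nm) followed ~30 min at room temperature; IC50 from initial rates by 4- or 5-parameter fit.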
# [1] = Table 21, compounds made using Scheme 28
# [2] = HCV NS3 helicase, tables do not say whether Example A or Example B assay
# [3] = Table 23, compounds made using Scheme 30
# [4] = Table 25, compounds made using Scheme 32
# [5] = Table 26, compounds made using Scheme 33
# [6] = Table 31, compounds made using Schemes 38-45
# T1 sequence (P26663 1027-1657): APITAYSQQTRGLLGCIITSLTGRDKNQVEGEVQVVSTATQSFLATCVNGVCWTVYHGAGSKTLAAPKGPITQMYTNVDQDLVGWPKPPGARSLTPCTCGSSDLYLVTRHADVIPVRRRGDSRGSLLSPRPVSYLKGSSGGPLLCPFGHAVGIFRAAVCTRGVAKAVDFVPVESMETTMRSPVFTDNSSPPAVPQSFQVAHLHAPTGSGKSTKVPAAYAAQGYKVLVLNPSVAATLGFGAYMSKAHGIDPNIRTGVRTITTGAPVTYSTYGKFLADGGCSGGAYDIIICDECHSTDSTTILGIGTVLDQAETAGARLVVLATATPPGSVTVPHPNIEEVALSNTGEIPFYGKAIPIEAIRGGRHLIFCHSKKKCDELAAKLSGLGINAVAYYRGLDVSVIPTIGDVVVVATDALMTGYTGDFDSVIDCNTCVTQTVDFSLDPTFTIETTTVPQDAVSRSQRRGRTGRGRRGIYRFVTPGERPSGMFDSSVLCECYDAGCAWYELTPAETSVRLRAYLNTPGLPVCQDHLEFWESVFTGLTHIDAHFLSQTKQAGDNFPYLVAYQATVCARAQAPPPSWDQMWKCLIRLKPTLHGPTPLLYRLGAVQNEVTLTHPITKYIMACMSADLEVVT
smiles,measurement,setting,value
CN(c1ccc(Cn2cc(CC(=O)O)c3ccccc32)cc1)c1cccc(C(F)(F)F)c1 [Example 566],pIC50,[1],> 5.00
CN(c1ccc(Cn2cc(CC(=O)O)c3ccccc32)cc1)c1ccc(C(F)(F)F)cc1 [Example 567],pIC50,[1],> 5.00
CN(c1ccc(Cn2cc(CC(=O)O)c3ccccc32)cc1)c1cccc(F)c1F [Example 568],pIC50,[1],> 5.00
CN(c1ccc(Cn2cc(CC(=O)O)c3ccccc32)cc1)c1ccc(F)cc1F [Example 569],pIC50,[1],> 5.00
CN(c1ccc(Cn2cc(CC(=O)O)c3ccccc32)cc1)c1cc(F)ccc1F [Example 570],pIC50,[1],> 5.00
CN(c1ccc(Cn2cc(CC(=O)O)c3ccccc32)cc1)c1c(F)cccc1F [Example 571],pIC50,[1],4.30 to 5.00
CN(c1ccc(Cn2cc(CC(=O)O)c3ccccc32)cc1)c1cccc(Cl)c1Cl [Example 572],pIC50,[1],> 5.00
CN(c1cccc(Cn2cc(CC(=O)O)c3ccccc32)c1)c1ccc(Cl)cc1Cl [Example 573],pIC50,[1],> 5.00
CN(c1ccc(Cn2cc(CC(=O)O)c3ccccc32)cc1)c1cc(Cl)ccc1Cl [Example 574],pIC50,[1],> 5.00
CN(c1ccc(Cn2cc(CC(=O)O)c3ccccc32)cc1)c1ccc(Cl)c(Cl)c1 [Example 575],pIC50,[1],> 5.00
CN(c1ccc(Cn2cc(CC(=O)O)c3ccccc32)cc1)c1c(Cl)cccc1Cl [Example 576],pIC50,[1],> 5.00
COc1ccc(N(C)c2ccc(Cn3cc(CC(=O)O)c4ccccc43)cc2)c(OC)c1 [Example 577],pIC50,[1],4.30 to 5.00
COc1ccc(OC)c(N(C)c2ccc(Cn3cc(CC(=O)O)c4ccccc43)cc2)c1 [Example 578],pIC50,[1],> 5.00
COc1ccc(N(C)c2ccc(Cn3cc(CC(=O)O)c4ccccc43)cc2)cc1OC [Example 579],pIC50,[1],4.30 to 5.00
CN(c1ccc(Cn2cc(CC(=O)O)c3ccccc32)cc1)c1ccc(C(F)(F)F)cc1C(F)(F)F [Example 580],pIC50,[1],> 5.00
CN(c1ccc(Cn2cc(CC(=O)O)c3ccccc32)cc1)c1cc(C(F)(F)F)ccc1C(F)(F)F [Example 581],pIC50,[1],> 5.00
CN(c1ccc(Cn2cc(CC(=O)O)c3ccccc32)cc1)c1cc(C(F)(F)F)cc(C(F)(F)F)c1 [Example 582],pIC50,[1],> 5.00
CCOC(=O)Cc1cn(Cc2ccc(N(C)c3ccccc3F)cc2)c2ccccc12 [Example 583],pIC50,[1],4.30 to 5.00
O=C(O)Cc1cn(Cc2ccc(Oc3cccc(F)c3F)cc2)c2ccccc12 [Example 584],pIC50,[2],> 5.00
O=C(O)Cc1cn(Cc2ccc(Oc3ccc(F)cc3F)cc2)c2ccccc12 [Example 585],pIC50,[2],> 5.00
O=C(O)Cc1cn(Cc2ccc(Oc3cc(F)ccc3F)cc2)c2ccccc12 [Example 586],pIC50,[2],> 5.00
O=C(O)Cc1cn(Cc2ccc(Oc3c(F)cccc3F)cc2)c2ccccc12 [Example 587],pIC50,[2],> 5.00
O=C(O)Cc1cn(Cc2ccc(Oc3cccc(Cl)c3Cl)cc2)c2ccccc12 [Example 588],pIC50,[2],> 5.00
O=C(O)Cc1cn(Cc2ccc(Oc3ccc(Cl)cc3Cl)cc2)c2ccccc12 [Example 589],pIC50,[2],> 5.00
O=C(O)Cc1cn(Cc2ccc(Oc3cc(Cl)ccc3Cl)cc2)c2ccccc12 [Example 590],pIC50,[2],> 5.00
O=C(O)Cc1cn(Cc2ccc(Oc3ccc(C(F)(F)F)cc3C(F)(F)F)cc2)c2ccccc12 [Example 591],pIC50,[3],> 5.00
O=C(O)Cc1cn(Cc2ccc(Oc3c(C(F)(F)F)cccc3C(F)(F)F)cc2)c2ccccc12 [Example 592],pIC50,[3],4.30 to 5.00
O=C(O)Cc1cn(Cc2cccc(Oc3ccc(F)cc3F)c2)c2ccccc12 [Example 593],pIC50,[3],> 5.00
O=C(O)Cc1cn(Cc2cccc(Oc3c(F)cccc3F)c2)c2ccccc12 [Example 594],pIC50,[3],> 5.00
O=C(O)Cc1cn(Cc2cccc(Oc3cccc(Cl)c3Cl)c2)c2ccccc12 [Example 595],pIC50,[3],> 5.00
O=C(O)Cc1cn(Cc2cccc(Oc3ccc(Cl)cc3Cl)c2)c2ccccc12 [Example 596],pIC50,[3],> 5.00
O=C(O)Cc1cn(Cc2cccc(Oc3ccc(C(F)(F)F)cc3C(F)(F)F)c2)c2ccccc12 [Example 597],pIC50,[3],> 5.00
O=C(O)Cc1cn(Cc2cccc(Oc3cc(Cl)ccc3Cl)c2)c2ccccc12 [Example 599],pIC50,[3],4.30 to 5.00
O=C(O)Cc1cn(Cc2cccc(Oc3c(Cl)cccc3Cl)c2)c2ccccc12 [Example 600],pIC50,[3],4.30 to 5.00
CCOC(=O)Cc1cn(Cc2ccc(Oc3cccc(Cl)c3)cc2)c2cc(-c3cccc(OC(C)=O)c3)ccc12 [Example 601],pIC50,[2],< 4.30
CCOC(=O)Cc1cn(Cc2ccc(Oc3cccc(OC)c3)cc2)c2cc(-c3cccc(OC(C)=O)c3)ccc12 [Example 602],pIC50,[2],4.30 to 5.00
CCOC(=O)Cc1cn(Cc2ccc(Oc3cccc(F)c3)cc2)c2cc(-c3cccc(OC(C)=O)c3)ccc12 [Example 603],pIC50,[2],< 4.30
CCOC(=O)Cc1cn(Cc2ccc(Oc3cccc(OCC)c3)cc2)c2cc(-c3cccc(OC(C)=O)c3)ccc12 [Example 604],pIC50,[2],< 4.30
CCOC(=O)Cc1cn(Cc2ccc(Oc3ccc(Cl)cc3)cc2)c2cc(-c3cccc(OC(C)=O)c3)ccc12 [Example 605],pIC50,[2],< 4.30
CCOC(=O)Cc1cn(Cc2ccc(Oc3ccc(C(F)(F)F)cc3)cc2)c2cc(-c3cccc(OC(C)=O)c3)ccc12 [Example 606],pIC50,[2],4.30 to 5.00
CCOC(=O)Cc1cn(Cc2ccc(Oc3ccc(C(F)(F)F)cc3)cc2)c2cc(-c3cc(N)cc(N)c3)ccc12 [Example 608],pIC50,[4],4.30 to 5.00
CCOC(=O)Cc1cn(Cc2ccc(Oc3cccc(OCC)c3)cc2)c2cc(-c3cc(N)cc(N)c3)ccc12 [Example 609],pIC50,[4],4.30 to 5.00
CCOC(=O)Cc1cn(Cc2ccc(Oc3cccc(OC)c3)cc2)c2cc(-c3cc(N)cc(N)c3)ccc12 [Example 610],pIC50,[4],4.30 to 5.00
CCOC(=O)Cc1cn(Cc2ccc(Oc3cccc(Cl)c3)cc2)c2cc(-c3cc(N)cc(N)c3)ccc12 [Example 612],pIC50,[4],> 5.00
CCOC(=O)Cc1cn(Cc2ccc(Oc3ccc(Cl)cc3)cc2)c2cc(-c3cc(N)cc(N)c3)ccc12 [Example 613],pIC50,[4],4.30 to 5.00
O=C(O)Cc1cn(Cc2csc3ccc(Cl)cc23)c2cc(-c3ccccc3)ccc12 [Example 614],pIC50,[5],> 5.00
Nc1ccc(CO)c(-c2ccc3c(CC(=O)O)cn(Cc4csc5ccc(Cl)cc45)c3c2)n1 [Example 615],pIC50,[5],4.30 to 5.00
CCC(=O)Oc1cn(Cc2csc3ccc(Cl)cc23)c2cc(-c3ccccc3)ccc12 [Example 616],pIC50,[5],< 4.30
CC(C)c1ccc(Cn2cc(CC(=O)O)c3ccc(-c4cc(N)cc(N)c4)cc32)cc1 [Example 619],pIC50,"Table 28, compounds made using Scheme 35",> 5.00
Nc1ncc(C(=O)O)c(-c2ccc3c(CC(=O)O)cn(Cc4csc5ccc(Cl)cc45)c3c2)n1 [Example 621],pIC50,"Table 29, compounds made using Scheme 36",< 4.30
O=C(O)Cc1cn(Cc2csc3ccc(Cl)cc23)c2cc(-c3cccc(O)c3)ccc12 [Example 625],pIC50,[6],> 5.00
Cc1ccccc1-c1ccc2c(CC(=O)O)cn(Cc3csc4ccc(Cl)cc34)c2c1 [Example 626],pIC50,[6],> 5.00
Cc1ccc(N)cc1-c1ccc2c(CC(=O)O)cn(Cc3csc4ccc(Cl)cc34)c2c1 [Example 627],pIC50,[6],> 5.00
Cc1c(N)cc(N)cc1-c1ccc2c(CC(=O)O)cn(Cc3csc4ccc(Cl)cc34)c2c1 [Example 628],pIC50,[6],> 5.00
Nc1cc(-c2ccc3c(CC(=O)O)cn(Cc4csc5ccc(Cl)cc45)c3c2)nc(N)n1 [Example 629],pIC50,[6],> 5.00
Nc1ccnc(-c2ccc3c(CC(=O)O)cn(Cc4csc5ccc(Cl)cc45)c3c2)n1 [Example 630],pIC50,[6],> 5.00
CCNc1nc(NCC)nc(-c2ccc3c(CC(=O)O)cn(Cc4csc5ccc(Cl)cc45)c3c2)n1 [Example 632],pIC50,[6],> 5.00

# — patent US20090047246A1, “NOVEL INHIBITORS OF HEPATITIS C VIRUS REPLICATION” (InterMune, Inc., priority 2007, published 2009)
